Assay results taken from patent publication US20130216482A1, “METHODS AND COMPOSITIONS FOR NON-INVASIVE, DYNAMIC IMAGING OF INTESTINAL MOTILITY” (The Board of Regents of the University of Texas System, priority 2012, published 2013).

Assay: In vivo dynamic NIR fluorescence imaging of ICG distribution, clearance and GI transit
Parameters: species or system mice
Procedure: Mice were chosen because part of the study involved opening the peritoneal cavity and removing organs to provide detailed information about the method and its abilities. Therefore, the subjects of the study were Female C57BL6 mice (4-6 wk old; Charles River, Wilmington, Mass., USA) that were housed and maintained in a pathogen-free mouse facility accredited by the American Association for Laboratory Animal Care. All studies were performed in accordance with the guidelines of the Institutional Animal Care and Use Committee. Animal experiments were approved by University of Texas Health Science Center Institutional Animal Care and Usage Committee in accordance with NIH guidelines.
In order to carry out in vivo dynamic NIR imaging of GI Motility, the mice were anesthetized with isofluorane and maintained at 37° C. on a warming pad. A volume of 10 μl and 50 ul of 645 μM of IC-Green (Akorn, Inc. Buffalo Grove, Ill., USA) dissolved in mixture of distilled water and 0.9% Sodium Chloride in a volume ratio of 1:9 was injected intradermally and intravenously, respectively.
For intravenous injection of ICG, a catheter was placed in the tail vein of anesthetized mice to facilitate the subsequent delivery of the fluorescent dye. Dynamic fluorescence images were acquired for a period of approximately 6 min immediately before and up to 24 hrs after intravenous injection using a custom-built NIR fluorescence imaging system, the basics of which are presented in FIG. 6 and has been described elsewhere (for example U.S. Pat. Nos. 8,084,753; 7,875,260; 7,865,230; 7,599,732; 7,328,059; 7,268,873; 7,187,441; 7,054,002; 6,930,777; 6,771,370; 5,818,583; 5,865,754 and Kwon and Sevick-Muraca, Lymphat Res Biol 5, 219-231, 2007; Kwon and Sevick-Muraca, J Immunol Methods 360, 167-172, 2010). Anesthetized mice were uniformly illuminated by 785 nm light from a laser diode and the emitted fluorescence was collected using an Electron Multiplying Charge Coupled Device (EMCCD) camera with a holographic filter and a bandpass filter placed prior to a 28 mm lens. Image acquisition with the camera exposure time of 100 ms for fluorescence and white light imaging was accomplished by V++ software. The abdominal skin temperature was monitored for temperature changes during dynamic fluorescence imaging using an infrared thermometer but no temperature changes were observed. Because it was possible that the non-invasive imaging of the intestines may not distinguish the GI lumen from blood and lymphatic vessels, necropsy of the mouse with exposure of the abdomen was performed at 1 hr post injection (p.i.) and the GI tract was removed and laid out on a black paper for intravital imaging.
The data obtained were analyzed with a custom Matlab (The MathWorks, Inc., Natick, Mass., USA) program and ImageJ (National Institutes of Health, Bethesda, Md., USA). Fixed regions of interest (ROIs) from equivalent areas were selected along the length of the fluorescent intestine. An average fluorescent intensity within each ROI was plotted as a function of imaging time and/or length of the intestine. A three-dimensional plot of fluorescent intensity as a function of time and distance was generated and used as a spatio-temporal map to assess the propagation velocity and the frequency of the propagation along the intestine. No corrections were made for respiratory movements in the construction of the three-dimensional spatio-temporal maps. The packet of fluorescent contents is represented by the peak in fluorescence intensity which propagates along the intestine with time. Two ROIs were identified, from which the distance and time information was extracted to measure the propagation velocity. In this study, peristalsis was defined as aboral propagation of contraction waves along the intestine.

[1] = 1 hr post injection, abdomen exposed (FIG. 4: intravenous)

CC1(C)C(/C=C/C=C/C=C/C=C2\N(CCCCS(=O)(=O)O)c3ccc4ccccc4c3C2(C)C)=[N+](CCCCS(=O)(=O)[O-])c2ccc3ccccc3c21 [ICG, indocyanine green]
fluorescence in the cecum [1]: weak
fluorescence throughout the small intestine [1]: strong but non-uniform
source of fluorescent signal in dissected small intestine (GI tract removed 1 hr post injection, contents removed): does not arise from the intestinal tissues, but rather from its contents
earliest detection of fluorescent signal in the cecum (after intradermal injection, also observed at 24 hr post injection): 1 h
time fluorescent vessels could be visualized (after intravenous administration): up to 2 min
distribution of the ICG throughout the mouse (following intravenous injection): within seconds
fluorescent signal in the liver (injected intravenously, 1 h post injection): greatly reduced
fluorescence in the liver (and gallbladder) (intradermal administration, 1 h post injection): still high
fluorescent signal arising from the stomach (post injection, all times): absent at all times
